According to PMC2937036 (PLoS ONE, 2010):
“Also recorded” adds a separate entry of the source. Where a SMILES comes first, the peptide text is derived from it. Bridges are numbered along the chain shown (N, C = ends).

Tests used:
[1] = system: Staphylococcus aureus 42D; test: Bactericidal assay (LD99.9), S. aureus in 25% human serum; type: cell-based; settings: unit not given (Table 3 uses µM)
Experimental: In order to be able to make a direct comparison with our serum stability measurements, a few peptides were selected to be tested for antimicrobial activity in 25% human serum (Table 4). […] All LD99.9 values are higher compared to the initial assays in 10 mM sodium phosphate buffer. Contributing factors to this general loss in activity could be the increased ionic concentration, interactions with serum components such as albumin or other proteins, and peptide degradation. Both hexamers with unprotected termini, Lfc1 and Com1, are no longer active while the cyclized short peptides remained fairly antimicrobial. In human serum, Lfc5 and Lfc6 are equally anti-staphylococcal. This reflects a greater loss of activity for Lfc6, but also coincides with the lower serum stability that this peptide has compared to Lfc5 (Fig. 2C). The activities of the cyclized Com peptides were all lowered equally with a 16-fold increase in LD99.9 values compared to activities in serum-excluded media and this agrees with their similar stability profiles (Fig. 2D).
(§1) The peptides were tested for microbicidal activities against Bacillus subtilis ATCC6633, Escherichia coli ML35, and Staphylococcus aureus 42D as previously described. Suspensions of logarithmically growing test bacteria were incubated on a microtiter plate at a concentration of 10^5 colony-forming units/mL with various peptide dilutions. The medium was 100 µL of 10 mM phosphate buffer pH 7.0 supplemented with 1% (v/v) of tryptic soy broth (TSB). For later assays, human male serum was also added to a final concentration of 25%. 10 µL aliquots were collected at time 0 h and after 2 h of incubation on a rotary shaker (300 rpm) at 37°C. These were plated on blood agar plates and incubated overnight at 37°C. The Lethal Dose concentration (LD99.9) was determined, corresponding to the concentration killing >99.9% of the inoculum at 2 h. These experiments were performed in duplicate.
(§2) For the testing of the peptides' activities in different conditions, e.g. with serum, we use the same cut-off for activity as defined for Minimum Bactericidal Concentration (MBC), i.e. a 1000-fold reduction of the inoculum. However, we designate this peptide concentration with the more general term LD99.9 which can be applied to the specified conditions of the experiments performed here.

[2] = system: Staphylococcus aureus 42D; test: Bactericidal assay (LD99.9), S. aureus; type: cell-based; settings: 10 mM phosphate buffer pH 7.0 with 1% TSB, 2 h, 37°C
Experimental: as §1, §2

in vitro = settings: 25% human male serum; for intact peptide after 2 h: 37°C; for half-life at 5 µM / remaining at 6.5 h, 5 µM / remaining at 24 h, 5 µM: male, human
Experimental: To investigate the effects of the modifications on proteolytic susceptibility, the disappearance of the intact peptides incubated in diluted human serum at 37°C was followed by RP-HPLC. […] Incubations were normally done for 9 h and, in some cases, longer.
Peptide stabilities were assayed in diluted serum as previously described. 25% human male serum was centrifuged at 13,000 rpm for 10 min to remove lipids and the supernatant was collected and incubated at 37°C for at least 15 min. The assay was initiated upon the addition of the test peptide to the serum for a final peptide concentration of 5 µM. 200 µL aliquots of the incubations were taken for the following time points: 0, 30, 75, 120, 240, 390 and 540 min. The aliquots were mixed with 40 µL of 15% trichloroacetic acid (TCA) and incubated at 4°C for at least 15 min to precipitate serum proteins. In the case of Com5 and Com6, 5 µL of 1 M NaOH was supplemented to the TCA to prevent peptide precipitation. The supernatant was collected for each sample after centrifugation at 13,000 rpm for 10 min and stored at −20°C. These assays were performed in triplicate.
Reverse phase high performance liquid chromatography (RP-HPLC) analysis was performed with an AKTA Purifier from Amersham Biosciences (Westborough, MA) using an uRPC C2/C18 ST 4.6/100 column from Pharmacia Biotech (SanJose, CA) of the following dimensions: bed length 100 mm, i.d. 4.6 mm, 120Å. Individually thawed samples were injected through a 100 µL loop, after which a linear gradient was run from 100% solution A (0.05% trifluoroacetic acid (TFA) in filtered water) to 100% solution B (0.045% TFA in 90% acetonitrile) with a flow rate at 0.5 mL/min. The relative concentrations of the remaining soluble peptides were analyzed by the integration of the absorbance at 215 nm as a function of retention time using the Analysis module of the Unicorn software package.

Escherichia coli ML35 = test: Bactericidal assay (LD99.9), E. coli; type: cell-based; settings: 10 mM phosphate buffer pH 7.0 with 1% TSB, 2 h, 37°C
Experimental: as §1, §2

[3] = system: Bacillus subtilis ATCC6633; test: Bactericidal assay (LD99.9), B. subtilis; type: cell-based; settings: 10 mM phosphate buffer pH 7.0 with 1% TSB, 2 h, 37°C
Experimental: as §1, §2

[4] = set-up: method as in PMID 15853943; settings: ITC; cited from earlier work
[5] = target: human serum albumin (HSA) (Homo sapiens, UniProt P02768); test: biochemical
Experimental: The potential for interactions between various peptides and bovine and human serum albumin (BSA and HSA) were studied by microcalorimetry.
ITC experiments were performed at 25°C on a Microcal VP-ITC microcalorimeter with data analysis performed with the Microcal Origin software. The sample cell contained 0.1 mM of either BSA or HSA dissolved in 20 mM HEPES, 100 mM NaCl, pH 7.9. The syringe was loaded with 2 mM test peptide in the same buffer, and each titration point resulted from 5 µL injections following an initial 2 µL injection. Separate control experiments were also performed to account for heats of dilution/mixing.

25% human male serum = settings: 37°C, up to 540 min

Chain of human serum albumin (HSA) (P02768 25-609): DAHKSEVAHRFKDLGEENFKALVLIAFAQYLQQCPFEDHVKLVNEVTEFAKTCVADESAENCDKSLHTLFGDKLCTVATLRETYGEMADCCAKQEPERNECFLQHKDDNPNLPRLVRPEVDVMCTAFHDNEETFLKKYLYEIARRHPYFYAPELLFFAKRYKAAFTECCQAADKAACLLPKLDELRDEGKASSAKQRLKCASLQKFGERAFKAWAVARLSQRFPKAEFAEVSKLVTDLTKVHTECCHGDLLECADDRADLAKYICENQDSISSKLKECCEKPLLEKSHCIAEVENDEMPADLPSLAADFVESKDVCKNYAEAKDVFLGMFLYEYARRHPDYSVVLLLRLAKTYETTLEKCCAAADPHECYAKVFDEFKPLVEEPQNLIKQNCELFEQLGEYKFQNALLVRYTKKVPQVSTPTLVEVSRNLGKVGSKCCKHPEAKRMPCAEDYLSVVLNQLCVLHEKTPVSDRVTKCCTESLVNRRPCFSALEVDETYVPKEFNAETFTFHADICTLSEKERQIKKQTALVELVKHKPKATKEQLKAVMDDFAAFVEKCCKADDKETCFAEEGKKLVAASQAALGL

Molecule | LD99.9 anti-S. aureus in 25% human serum [1] | 99.9% Lethal Dose Concentration (LD99.9) S. aureus [2] | half-life at 5 µM (in vitro) | 99.9% Lethal Dose Concentration (LD99.9) E. coli (Escherichia coli ML35) | 99.9% Lethal Dose Concentration (LD99.9) B. subtilis [3] | fragment found (25% human male serum) | also measured
N=C(N)NCCC[C@H](NC(=O)[C@H](Cc1c[nH]c2ccccc12)NC(=O)[C@H](Cc1c[nH]c2ccccc12)NC(=O)[C@H](CCCNC(=N)N)NC(=O)[C@@H](N)CCCNC(=N)N)C(=O)N[C@@H](Cc1ccccc1)C(=O)O [Com1, RRWWRF] (H-RRWWRF-OH) | >120 | 7.5 µM | < 0.5 h | 60 µM | 1.9 µM |  | intact peptide after 2 h (in vitro): completely gone
CC(=O)N[C@@H](CCCNC(=N)N)C(=O)N[C@@H](CCCNC(=N)N)C(=O)N[C@@H](Cc1c[nH]c2ccccc12)C(=O)N[C@@H](Cc1c[nH]c2ccccc12)C(=O)N[C@@H](CCCNC(=N)N)C(=O)N[C@@H](Cc1ccccc1)C(=O)O [Com3, CH3CO-RRWWRF] (Ac-RRWWRF-OH) |  | 30 µM | ~1 h | 120 µM | 7.5 µM |  | intact peptide after 2 h (in vitro): almost fully degraded
CC(=O)N[C@@H](CCCNC(=N)N)C(=O)N[C@@H](CCCNC(=N)N)C(=O)N[C@@H](Cc1c[nH]c2ccccc12)C(=O)N[C@@H](Cc1c[nH]c2ccccc12)C(=O)N[C@@H](CCCNC(=N)N)C(=O)N[C@@H](Cc1ccccc1)C(N)=O [Com4, CH3CO-RRWWRF-NH2] (Ac-RRWWRF-NH2) |  | 7.5 µM | ~1.5 h | 7.5 µM | 0.9 µM |  | affinity for negatively charged membranes [4]: micromolar affinity
N=C(N)NCCC[C@@H]1NC(=O)[C@H](CCCNC(=N)N)NC(=O)[C@H](Cc2ccccc2)NC(=O)[C@H](CCCNC(=N)N)NC(=O)[C@H](Cc2c[nH]c3ccccc23)NC(=O)[C@H](Cc2c[nH]c3ccccc23)NC1=O [Com5, -RRWWRF-] (cyclo(RRWWRF)) | 30 | 7.5 µM |  | 30 µM | ≤0.45 µM |  | remaining at 6.5 h, 5 µM (in vitro): > 70%; remaining at 24 h, 5 µM (in vitro): ~50%
N=C(N)NCCC[C@@H]1NC(=O)[C@H](Cc2c[nH]c3ccccc23)NC(=O)[C@H](Cc2c[nH]c3ccccc23)NC(=O)[C@H](CCCNC(=N)N)NC(=O)[C@H](CCCNC(=N)N)NC(=O)[C@@H](N)CSSC[C@@H](C(N)=O)NC(=O)[C@H](Cc2ccccc2)NC1=O [Com6, CRRWWRFC-NH2] (H-CRRWWRFC-NH2; disulfide 1-8) | 15 | 0.9 µM |  | 3.8 µM | 0.9 µM |  | remaining at 6.5 h, 5 µM (in vitro): ~50%
N=C(N)NCCC[C@H](NC(=O)[C@H](Cc1c[nH]c2ccccc12)NC(=O)[C@H](CCC(N)=O)NC(=O)[C@H](Cc1c[nH]c2ccccc12)NC(=O)[C@H](CCCNC(=N)N)NC(=O)[C@@H](N)CCCNC(=N)N)C(=O)O [Lfc1, RRWQWR] (H-RRWQWR-OH) | >120 | 30 µM | < 0.5 h | 60 µM | 7.5 µM |  | intact peptide after 2 h (in vitro): completely gone
CC(=O)N[C@@H](CCCNC(=N)N)C(=O)N[C@@H](CCCNC(=N)N)C(=O)N[C@@H](Cc1c[nH]c2ccccc12)C(=O)N[C@@H](CCC(N)=O)C(=O)N[C@@H](Cc1c[nH]c2ccccc12)C(=O)N[C@@H](CCCNC(=N)N)C(=O)O [Lfc3, CH3CO-RRWQWR] (Ac-RRWQWR-OH) |  | >120 µM | ~1 h | 120 µM | 60 µM |  | intact peptide after 2 h (in vitro): almost fully degraded
CC(=O)N[C@@H](CCCNC(=N)N)C(=O)N[C@@H](CCCNC(=N)N)C(=O)N[C@@H](Cc1c[nH]c2ccccc12)C(=O)N[C@@H](CCC(N)=O)C(=O)N[C@@H](Cc1c[nH]c2ccccc12)C(=O)N[C@@H](CCCNC(=N)N)C(N)=O [Lfc4, CH3CO-RRWQWR-NH2] (Ac-RRWQWR-NH2) |  | 60 µM | ~1.5 h | 15 µM | 3.8 µM |  | 
N=C(N)NCCC[C@@H]1NC(=O)[C@H](CCCNC(=N)N)NC(=O)[C@H](Cc2c[nH]c3ccccc23)NC(=O)[C@H](CCC(N)=O)NC(=O)[C@H](Cc2c[nH]c3ccccc23)NC(=O)[C@H](CCCNC(=N)N)NC1=O [Lfc5, -RRWQWR-] (cyclo(RRWQWR)) | 60 | 7.5 µM |  | 7.5 µM | 1.9 µM |  | remaining at 6.5 h, 5 µM (in vitro): > 70%; remaining at 24 h, 5 µM (in vitro): ~50%
N=C(N)NCCC[C@@H]1NC(=O)[C@H](Cc2c[nH]c3ccccc23)NC(=O)[C@H](CCC(N)=O)NC(=O)[C@H](Cc2c[nH]c3ccccc23)NC(=O)[C@H](CCCNC(=N)N)NC(=O)[C@H](CCCNC(=N)N)NC(=O)[C@@H](N)CSSC[C@@H](C(N)=O)NC1=O [Lfc6, CRRWQWRC-NH2] (H-CRRWQWRC-NH2; disulfide 1-8) | 60 |  |  |  |  |  | 
CSCC[C@@H]1NC(=O)[C@H](CCCNC(=N)N)NC(=O)[C@H](Cc2c[nH]c3ccccc23)NC(=O)[C@H](CCC(N)=O)NC(=O)[C@H](Cc2c[nH]c3ccccc23)NC(=O)[C@H](CCCNC(=N)N)NC(=O)[C@H](CCCNC(=N)N)NC(=O)CNC(=O)[C@H](CC(C)C)NC(=O)[C@H](CCCCN)NC(=O)[C@H](CCCCN)NC1=O [Lfc8, -RRWQWRMKKLG-] (cyclo(RRWQWRMKKLG)) |  | 15 µM |  | 3.8 µM | ≤0.45 µM |  | Kd [5]: 150 µM
-RRWQWR- (cyclo(RRWQWR); SMILES N=C(N)NCCC[C@@H]1NC(=O)[C@H](CCCNC(=N)N)NC(=O)[C@H](Cc2c[nH]c3ccccc23)NC(=O)[C@H](CCC(N)=O)NC(=O)[C@H](Cc2c[nH]c3ccccc23)NC(=O)[C@H](CCCNC(=N)N)NC1=O) |  |  |  |  |  | Single Cut, 75 min | 
-RRWQWRMKKLG- (cyclo(RRWQWRMKKLG); SMILES CSCC[C@@H]1NC(=O)[C@H](CCCNC(=N)N)NC(=O)[C@H](Cc2c[nH]c3ccccc23)NC(=O)[C@H](CCC(N)=O)NC(=O)[C@H](Cc2c[nH]c3ccccc23)NC(=O)[C@H](CCCNC(=N)N)NC(=O)[C@H](CCCNC(=N)N)NC(=O)CNC(=O)[C@H](CC(C)C)NC(=O)[C@H](CCCCN)NC(=O)[C@H](CCCCN)NC1=O) |  |  |  |  |  | Single Cut, 75 min | 
Ac-RRWQWR-NH2 |  |  |  |  |  | CH3CO-RRWQ, 75 min; also recorded: CH3CO-RRW, 75 min | 
Ac-RRWQWR-OH |  |  |  |  |  | CH3CO-RRWQ, 75 min; also recorded: CH3CO-RRW, 75 min | 
Ac-RRWWRF-NH2 |  |  |  |  |  | CH3CO-RRWW, 75 min; also recorded: CH3CO-RRW, 75 min | 
RRWQWRMKKLG |  |  |  |  |  | RWQWRM, 75 min; also recorded: WQWRM, 75 min | 
